The source of these data is PubChem BioAssay AID1259407 (Chemical Carcinogenesis Research Information System (CCRIS), 2018).

The subject of this series is CCRIS mutagenicity, Ames/micronucleus/aberration tests. Nature of the series: CCRIS mutagenicity studies.
The mark [1] stands for this setting: Test System: AMES SALMONELLA TYPHIMURIUM, Strain/Indicator: TA97, Metabolic Activation: NONE, Method: STANDARD PLATE.
The mark [2] stands for this setting: Test System: AMES SALMONELLA TYPHIMURIUM, Strain/Indicator: TA98, Metabolic Activation: NONE, Method: PREINCUBATION
The mark [3] stands for this setting: Test System: AMES SALMONELLA TYPHIMURIUM, Strain/Indicator: TA98, Metabolic Activation: NONE, Method: STANDARD PLATE.
Where [4] appears, read: Test System: AMES SALMONELLA TYPHIMURIUM, Strain/Indicator: TA98, Metabolic Activation: RAT, LIVER, S-9, AROCLOR 1254, Method: STANDARD PLATE.
The mark [5] stands for this setting: Test System: AMES SALMONELLA TYPHIMURIUM, Strain/Indicator: TA100, Metabolic Activation: NONE, Method: STANDARD PLATE.
[6] abbreviates: Test System: AMES SALMONELLA TYPHIMURIUM, Strain/Indicator: TA100, Metabolic Activation: RAT, LIVER, S-9, KC500 OR PHENOBARBITAL, Method: LIQUID SUSPENSION
Setting [7] is: Test System: AMES SALMONELLA TYPHIMURIUM, Strain/Indicator: TA102, Metabolic Activation: NONE, Method: STANDARD PLATE.
Setting [8] is: Test System: AMES SALMONELLA TYPHIMURIUM, Strain/Indicator: TA1535, Metabolic Activation: NONE, Method: STANDARD PLATE.
Setting [9] is: Test System: AMES SALMONELLA TYPHIMURIUM, Strain/Indicator: TA1538, Metabolic Activation: NONE, Method: STANDARD PLATE.
Where [10] appears, read: Test System: AMES SALMONELLA TYPHIMURIUM, Strain/Indicator: TA1537, Metabolic Activation: NONE, Method: STANDARD PLATE.
The mark [11] stands for this setting: Test System: AMES SALMONELLA TYPHIMURIUM, Strain/Indicator: TA100, Metabolic Activation: RAT, LIVER, S-9, AROCLOR 1254, Method: STANDARD PLATE.

The structures appear in SMILES notation. Calls of active or inactive are those of the source. How the calls were made is not given here.

For `COc1cccc2c1C(=O)c1c(O)c3c(c(O)c1C2=O)C[C@@](O)(C(C)=O)C[C@@H]3O[C@H]1C[C@H](N)[C@H](O)[C@H](C)O1`, the mutagenic call was “active; positive (p<0.001)” (End Point: In vitro micronucleus, Test System: Human lymphoblastoid TK6 cells, Metabolic Activation: None); “active; positive” (Test System: AMES SALMONELLA TYPHIMURIUM, Strain/Indicator: GW257, Metabolic Activation: NONE, Method: STANDARD PLATE); “inactive; negative” under setting [1]; “active; positive” under setting [2]; “active; positive” under setting [3]; “active; positive” under setting [4]. Further, the mutagenic call was “active; positive” (Test System: AMES SALMONELLA TYPHIMURIUM, Strain/Indicator: TA98, Metabolic Activation: RAT, LIVER, S-9, KC500 OR PHENOBARBITAL, Method: LIQUID SUSPENSION); “active; positive” under setting [5]; “active; positive” under setting [6]; “active; positive” under setting [7]; “inactive; negative” (Test System: AMES SALMONELLA TYPHIMURIUM, Strain/Indicator: TA104, Metabolic Activation: NONE, Method: STANDARD PLATE); “inactive; negative” under setting [8]. Besides, the mutagenic call is, setting by setting: under setting [9], “active; positive”; (Test System: AMES SALMONELLA TYPHIMURIUM, Strain/Indicator: TA1978/PKM101, Metabolic Activation: NONE, Method: STANDARD PLATE) “active; positive”; (Test System: AMES SALMONELLA TYPHIMURIUM, Strain/Indicator: TA1978, Metabolic Activation: NONE, Method: STANDARD PLATE) “inactive; negative”; (Test System: AMES SALMONELLA TYPHIMURIUM, Strain/Indicator: TA2637, Metabolic Activation: NONE, Method: STANDARD PLATE) “active; positive”; (Test System: AMES SALMONELLA TYPHIMURIUM, Strain/Indicator: TA2638, Metabolic Activation: NONE, Method: STANDARD PLATE) “active; positive”; (Test System: CHINESE HAMSTER V-79, Strain/Indicator: V-79/6-THIOGUANINE, Metabolic Activation: NONE, Method: SUSPENSION/PLATE) “inactive; negative”. The mutagenic call is “inactive; negative” (Test System: CHINESE HAMSTER V-79, Strain/Indicator: V-79/6-THIOGUANINE, Metabolic Activation: RAT, LIVER, HOMOGENATE, Method: SUSPENSION/PLATE); “active; positive” (Test System: CHINESE HAMSTER V-79, Strain/Indicator: V-79/8-AZAGUANINE, Metabolic Activation: NONE, Method: STANDARD PLATE); “inactive; negative” (Test System: E. COLI, Strain/Indicator: WP2 (HCR), Metabolic Activation: NONE, Method: STANDARD PLATE); “active; positive” (Test System: E. COLI, Strain/Indicator: WP2 (PKM101), Metabolic Activation: NONE, Method: STANDARD PLATE); “active; positive” (Test System: E. COLI, Strain/Indicator: WP2 UVRA (PKM101), Metabolic Activation: NONE, Method: STANDARD PLATE); “active; positive” (Test System: UDS RAT HEPATOCYTES, Strain/Indicator: THY INCORP, Metabolic Activation: NONE, Method: AUTOMATIC COLONY COUNTER).
`ClCCNCCCNc1c2ccccc2nc2c1ccc1cccnc12`: the mutagenic call reads like this: under setting [3], “active; positive”; under setting [5], “active; positive”; under setting [8], “inactive; negative”; (Test System: AMES SALMONELLA TYPHIMURIUM, Strain/Indicator: TA1536, Metabolic Activation: NONE, Method: STANDARD PLATE) “active; positive”; under setting [10], “active; positive”; under setting [9], “active; positive”.
On to `CC(C)[C@](O)(C(=O)O)[C@@H](C)O`, for which the mutagenic call was “inactive; negative” (Test System: AMES SALMONELLA TYPHIMURIUM, Strain/Indicator: TA100, Metabolic Activation: HAMSTER, LIVER, S-9, PCB, Method: PREINCUBATION) and “inactive; negative” (Test System: AMES SALMONELLA TYPHIMURIUM, Strain/Indicator: TA100, Metabolic Activation: RAT, LIVER, S-9, PCB, Method: PREINCUBATION).
Turning to `CC(=O)ON(C(C)=O)c1ccc(/C=C\c2ccccc2)cc1`, the mutagenic call (Test System: UDS HUMAN CELLS, Strain/Indicator: THY INCORP (NON-S-PHASE), Metabolic Activation: NONE, Method: LIQUID SCINTILLATION COUNTING) is “active; positive” and the mutagenic call (Test System: UDS HUMAN FIBROBLASTS, Strain/Indicator: THY INCORP (NON-S-PHASE), Metabolic Activation: NONE, Method: AUTORADIOGRAPHY) was “active; positive”.
With `CC(O)CN(C)c1ccc(NN)nn1` (stereo not given), the mutagenic call is, setting by setting: under setting [1], “active; positive”; (Test System: AMES SALMONELLA TYPHIMURIUM, Strain/Indicator: TA97, Metabolic Activation: RAT, LIVER, S-9, AROCLOR 1254, Method: STANDARD PLATE) “active; positive”; under setting [3], “active; positive”; under setting [4], “active; positive”; under setting [5], “inactive; negative”; under setting [11], “inactive; negative”. The mutagenic call runs as follows: under setting [7], “active; positive”; (Test System: AMES SALMONELLA TYPHIMURIUM, Strain/Indicator: TA102, Metabolic Activation: RAT, LIVER, S-9, AROCLOR 1254, Method: STANDARD PLATE) “inactive; negative”; under setting [8], “inactive; negative”; (Test System: AMES SALMONELLA TYPHIMURIUM, Strain/Indicator: TA1535, Metabolic Activation: RAT, LIVER, S-9, AROCLOR 1254, Method: STANDARD PLATE) “inactive; negative”; under setting [10], “active; positive”; (Test System: AMES SALMONELLA TYPHIMURIUM, Strain/Indicator: TA1537, Metabolic Activation: RAT, LIVER, S-9, AROCLOR 1254, Method: STANDARD PLATE) “active; positive”. Besides, the mutagenic call under setting [9] was “active; positive”; the mutagenic call (Test System: AMES SALMONELLA TYPHIMURIUM, Strain/Indicator: TA1538, Metabolic Activation: RAT, LIVER, S-9, AROCLOR 1254, Method: STANDARD PLATE) is “active; positive”; the mutagenic call (Test System: E. COLI, Strain/Indicator: WP2, Metabolic Activation: RAT, LIVER, S-9, AROCLOR 1254, Method: STANDARD PLATE) is “inactive; negative”; the mutagenic call (Test System: E. COLI, Strain/Indicator: WP2 UVRA, Metabolic Activation: RAT, LIVER, S-9, AROCLOR 1254, Method: STANDARD PLATE) is “active; positive”.
In the case of `CC1CN(/N=C/c2ccc([N+](=O)[O-])o2)C(=O)N1` (stereo not given), the mutagenic call under setting [6] was “active; positive”.
As to `O=NN1CSCC1C(=O)O` (stereo not given), the mutagenic call is “inactive; negative” under setting [2]; “inactive; negative” under setting [3]; “inactive; negative” (Test System: AMES SALMONELLA TYPHIMURIUM, Strain/Indicator: TA98, Metabolic Activation: RAT, LIVER, S-9, AROCLOR 1254, Method: PREINCUBATION); “inactive; negative” under setting [4]; “inactive; negative” (Test System: AMES SALMONELLA TYPHIMURIUM, Strain/Indicator: TA100, Metabolic Activation: NONE, Method: PREINCUBATION); “inactive; negative” under setting [5]. In addition, the mutagenic call is “inactive; negative” (Test System: AMES SALMONELLA TYPHIMURIUM, Strain/Indicator: TA100, Metabolic Activation: RAT, LIVER, S-9, AROCLOR 1254, Method: PREINCUBATION) and “inactive; negative” under setting [11].
On to `CNC(=O)ON`, for which the mutagenic call under setting [3] was “active; positive”; the mutagenic call (Test System: AMES SALMONELLA TYPHIMURIUM, Strain/Indicator: TA98, Metabolic Activation: RAT, LIVER, S-9, Method: STANDARD PLATE) was “active; positive”; the mutagenic call under setting [5] is “active; positive”.
With `C[15NH][15N]=O`, the mutagenic call is “active; positive” under setting [8]; “active; positive” (Test System: E. COLI, Strain/Indicator: WP2, Metabolic Activation: NONE, Method: STANDARD PLATE); “active; positive” (Test System: E. COLI, Strain/Indicator: WP2 UVRA, Metabolic Activation: NONE, Method: STANDARD PLATE).
